Data from PubChem BioAssay (NCI).
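Assay format: 96-well plates, 48-hour exposure. GI50 is the concentration that inhibits growth by half. TGI marks complete inhibition of growth.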

Legend:
Assay in all cases: inhibition of tumour cell growth, NCI panel, 48 h; in the data active means GI50 below about 0.43 µM; inactive means the rest
SK-MEL-28 melanoma = system: SK-MEL-28 melanoma
OVCAR-4 ovarian = system: OVCAR-4 ovarian
HL-60(TB) leukemia = system: HL-60(TB) leukemia
HCC-2998 colon = system: HCC-2998 colon
OVCAR-5 ovarian = system: OVCAR-5 ovarian
UO-31 renal = system: UO-31 renal
HT29 colon = system: HT29 colon
UACC-62 melanoma = system: UACC-62 melanoma
SNB-19 CNS = system: SNB-19 CNS
RXF 393 renal = system: RXF 393 renal
OVCAR-8 ovarian = system: OVCAR-8 ovarian
SN12C renal = system: SN12C renal
MDA-MB-435 = system: MDA-MB-435
OVCAR-3 ovarian = system: OVCAR-3 ovarian
MDA-N = system: MDA-N
TK-10 renal = system: TK-10 renal
HOP-92 NSCLC = system: HOP-92 NSCLC
EKVX NSCLC = system: EKVX NSCLC
786-0 renal = system: 786-0 renal
T-47D breast = system: T-47D breast
A549 NSCLC = system: A549 NSCLC
HCT-116 colon = system: HCT-116 colon
U251 CNS = system: U251 CNS
SNB-75 CNS = system: SNB-75 CNS
NCI-H460 lung = system: NCI-H460 lung
SK-MEL-2 melanoma = system: SK-MEL-2 melanoma
HOP-62 NSCLC = system: HOP-62 NSCLC
COLO 205 colon = system: COLO 205 colon
SK-OV-3 ovarian = system: SK-OV-3 ovarian
MCF7 breast = system: MCF7 breast
DU-145 prostate = system: DU-145 prostate
MOLT-4 leukemia = system: MOLT-4 leukemia
NCI/ADR-RES ovarian = system: NCI/ADR-RES ovarian
SW-620 colon = system: SW-620 colon
SF-268 CNS = system: SF-268 CNS
MDA-MB-231 breast = system: MDA-MB-231 breast
BT-549 breast = system: BT-549 breast
SF-295 CNS = system: SF-295 CNS
KM12 colon = system: KM12 colon
IGROV1 ovarian = system: IGROV1 ovarian
SK-MEL-5 melanoma = system: SK-MEL-5 melanoma
UACC-257 melanoma = system: UACC-257 melanoma
CAKI-1 renal = system: CAKI-1 renal
ACHN renal = system: ACHN renal
NCI-H23 lung = system: NCI-H23 lung
HCT-15 colon = system: HCT-15 colon
A498 renal = system: A498 renal
LOX IMVI melanoma = system: LOX IMVI melanoma
M14 melanoma = system: M14 melanoma
SF-539 CNS = system: SF-539 CNS
NCI-H226 lung = system: NCI-H226 lung
HS 578T breast = system: HS 578T breast
CCRF-CEM leukemia = system: CCRF-CEM leukemia
PC-3 prostate = system: PC-3 prostate
NCI-H522 lung = system: NCI-H522 lung
K-562 leukemia = system: K-562 leukemia
SR leukemia = system: SR leukemia
RPMI-8226 leukemia = system: RPMI-8226 leukemia
MALME-3M melanoma = system: MALME-3M melanoma

Cc1cc(O)c(/C=N/C(=S)Nc2ccc(S(N)(=O)=O)cc2)c(=O)o1
> 100 µM: TGI (SK-MEL-28 melanoma) | TGI (OVCAR-4 ovarian) | TGI (HL-60(TB) leukemia) | TGI (HCC-2998 colon) | TGI (OVCAR-5 ovarian) | TGI (UO-31 renal) | TGI (HT29 colon) | TGI (UACC-62 melanoma) | TGI (SNB-19 CNS) | TGI (RXF 393 renal) | TGI (OVCAR-8 ovarian) | TGI (SN12C renal) | TGI (MDA-MB-435) | TGI (OVCAR-3 ovarian) | TGI (MDA-N) | TGI (TK-10 renal) | TGI (HOP-92 NSCLC) | TGI (EKVX NSCLC) | TGI (786-0 renal) | TGI (T-47D breast) | TGI (A549 NSCLC) | TGI (HCT-116 colon) | TGI (U251 CNS) | TGI (SNB-75 CNS) | TGI (NCI-H460 lung) | TGI (SK-MEL-2 melanoma) | TGI (HOP-62 NSCLC) | TGI (COLO 205 colon) | TGI (SK-OV-3 ovarian) | TGI (MCF7 breast) | TGI (DU-145 prostate) | TGI (MOLT-4 leukemia) | TGI (NCI/ADR-RES ovarian) | TGI (SW-620 colon) | TGI (SF-268 CNS) | TGI (MDA-MB-231 breast) | TGI (BT-549 breast) | TGI (SF-295 CNS) | TGI (KM12 colon) | TGI (IGROV1 ovarian) | TGI (SK-MEL-5 melanoma) | TGI (UACC-257 melanoma) | TGI (CAKI-1 renal) | TGI (ACHN renal) | TGI (NCI-H23 lung) | TGI (HCT-15 colon) | TGI (A498 renal) | TGI (LOX IMVI melanoma) | TGI (M14 melanoma) | TGI (SF-539 CNS) | TGI (NCI-H226 lung)

COC(=O)C(=O)C(C(=O)C(=O)Nc1ccc(C)cc1C)c1nc2ccc(Cl)cc2[nH]c1=O (stereo unspecified)
> 100 µM: TGI (SK-MEL-28 melanoma) | TGI (OVCAR-4 ovarian) | TGI (HL-60(TB) leukemia) | TGI (HCC-2998 colon) | TGI (OVCAR-5 ovarian) | TGI (HS 578T breast) | TGI (CCRF-CEM leukemia) | TGI (UO-31 renal) | TGI (HT29 colon) | TGI (UACC-62 melanoma) | TGI (SNB-19 CNS) | TGI (RXF 393 renal) | TGI (OVCAR-8 ovarian) | TGI (SN12C renal) | TGI (MDA-MB-435) | TGI (OVCAR-3 ovarian) | TGI (MDA-N) | TGI (TK-10 renal) | TGI (HOP-92 NSCLC) | TGI (EKVX NSCLC) | TGI (786-0 renal) | TGI (A549 NSCLC) | TGI (HCT-116 colon) | TGI (U251 CNS) | TGI (SNB-75 CNS) | TGI (NCI-H460 lung) | TGI (SK-MEL-2 melanoma) | TGI (HOP-62 NSCLC) | TGI (COLO 205 colon) | TGI (SK-OV-3 ovarian) | TGI (MCF7 breast) | TGI (DU-145 prostate) | TGI (MOLT-4 leukemia) | TGI (NCI/ADR-RES ovarian) | TGI (SW-620 colon) | TGI (SF-268 CNS) | TGI (MDA-MB-231 breast) | TGI (PC-3 prostate) | TGI (NCI-H522 lung) | TGI (BT-549 breast) | TGI (SF-295 CNS) | TGI (KM12 colon) | TGI (IGROV1 ovarian) | TGI (SK-MEL-5 melanoma) | TGI (UACC-257 melanoma) | TGI (CAKI-1 renal) | TGI (ACHN renal) | TGI (NCI-H23 lung) | TGI (HCT-15 colon) | TGI (LOX IMVI melanoma) | TGI (M14 melanoma) | TGI (SF-539 CNS) | TGI (NCI-H226 lung)

Cc1cc(-c2nc3c(F)cccc3s2)ccc1N
> 100 µM: TGI (SK-MEL-28 melanoma) | TGI (OVCAR-4 ovarian) | TGI (HL-60(TB) leukemia) | TGI (HCC-2998 colon) | TGI (HS 578T breast) | TGI (CCRF-CEM leukemia) | TGI (UO-31 renal) | TGI (K-562 leukemia) | TGI (HT29 colon) | TGI (UACC-62 melanoma) | TGI (RXF 393 renal) | TGI (SR leukemia) | TGI (OVCAR-8 ovarian) | TGI (SN12C renal) | TGI (MDA-MB-435) | TGI (OVCAR-3 ovarian) | TGI (MDA-N) | TGI (HOP-92 NSCLC) | TGI (786-0 renal) | TGI (A549 NSCLC) | TGI (HCT-116 colon) | TGI (U251 CNS) | TGI (SNB-75 CNS) | TGI (SK-MEL-2 melanoma) | TGI (HOP-62 NSCLC) | TGI (COLO 205 colon) | TGI (SK-OV-3 ovarian) | TGI (MCF7 breast) | TGI (DU-145 prostate) | TGI (RPMI-8226 leukemia) | TGI (NCI/ADR-RES ovarian) | TGI (SW-620 colon) | TGI (SF-268 CNS) | TGI (MDA-MB-231 breast) | TGI (PC-3 prostate) | TGI (NCI-H522 lung) | TGI (BT-549 breast) | TGI (SF-295 CNS) | TGI (KM12 colon) | TGI (IGROV1 ovarian) | TGI (SK-MEL-5 melanoma) | TGI (UACC-257 melanoma) | TGI (CAKI-1 renal) | TGI (ACHN renal) | TGI (NCI-H23 lung) | TGI (HCT-15 colon) | TGI (A498 renal) | TGI (LOX IMVI melanoma) | TGI (MALME-3M melanoma) | TGI (M14 melanoma) | TGI (NCI-H226 lung)
31.5 µM: TGI (EKVX NSCLC)
63.9 µM: TGI (MOLT-4 leukemia)
inactive: GI50 (OVCAR-4 ovarian) 20.9 µM | GI50 (HCC-2998 colon) > 100 µM | GI50 (OVCAR-5 ovarian) 1.68 µM | GI50 (IGROV1 ovarian) 22.7 µM | GI50 (NCI-H226 lung) 5.45 µM
76.2 µM: TGI (OVCAR-5 ovarian)

Cc1c(-c2ccccc2)[nH]c2cn[nH]c(=O)c12
> 100 µM: TGI (SK-MEL-28 melanoma) | TGI (HL-60(TB) leukemia) | TGI (HCC-2998 colon) | TGI (OVCAR-5 ovarian) | TGI (HS 578T breast) | TGI (CCRF-CEM leukemia) | TGI (UO-31 renal) | TGI (K-562 leukemia) | TGI (HT29 colon) | TGI (UACC-62 melanoma) | TGI (SNB-19 CNS) | TGI (SR leukemia) | TGI (OVCAR-8 ovarian) | TGI (MDA-MB-435) | TGI (OVCAR-3 ovarian) | TGI (MDA-N) | TGI (TK-10 renal) | TGI (HOP-92 NSCLC) | TGI (EKVX NSCLC) | TGI (786-0 renal) | TGI (A549 NSCLC) | TGI (HCT-116 colon) | TGI (U251 CNS) | TGI (NCI-H460 lung) | TGI (SK-MEL-2 melanoma) | TGI (HOP-62 NSCLC) | TGI (COLO 205 colon) | TGI (SK-OV-3 ovarian) | TGI (MCF7 breast) | TGI (DU-145 prostate) | TGI (MOLT-4 leukemia) | TGI (RPMI-8226 leukemia) | TGI (NCI/ADR-RES ovarian) | TGI (SW-620 colon) | TGI (SF-268 CNS) | TGI (MDA-MB-231 breast) | TGI (PC-3 prostate) | TGI (NCI-H522 lung) | TGI (BT-549 breast) | TGI (SF-295 CNS) | TGI (KM12 colon) | TGI (IGROV1 ovarian) | TGI (SK-MEL-5 melanoma) | TGI (UACC-257 melanoma) | TGI (CAKI-1 renal) | TGI (ACHN renal) | TGI (NCI-H23 lung) | TGI (HCT-15 colon) | TGI (A498 renal) | TGI (LOX IMVI melanoma) | TGI (MALME-3M melanoma) | TGI (M14 melanoma) | TGI (SF-539 CNS)
